ChEMBL document CHEMBL1909046, “DrugMatrix in vitro pharmacology data”
*1 amine or outer side, *2 acyl side, *3 side chain or, on linkers, in order; H or OH if unused. Where a SMILES comes first, the peptide text is derived from it. Bridges are numbered along the chain shown (N, C = ends). Roman numbers before positions name the chains, in order. [ ]: non-standard residue; d: D form. Actinocin(1to9) = Cc1c2oc3c(C)ccc(C(=O)[*:2])c3nc-2c(C(=O)[*:1])c(N)c1=O; NMeV = CN[C@H](C(=O)O)C(C)C; Sar = CNCC(=O)O

Legend:
[1] = DRUGMATRIX: Glutamate, NMDA, Phencyclidine radioligand binding (ligand: [3H] TCP); assay type: cell membranes, Rattus norvegicus, Wistar, Cerebral cortex, Membrane; conditions: Not Active = under 50% inhibition at 10 µM
[2] = DRUGMATRIX: ATPase, Na+/K+ enzyme inhibition (substrate: ATP); assay type: tissue-based, Sus scrofa, Heart; conditions: Not Active = under 50% inhibition at 10 µM
[3] = biological target: Vasopressin V1a receptor (Homo sapiens, UniProt P37288); assay type: cell membranes, Membrane; conditions: hek293; also: in other assays of this panel Not Active means under 50% inhibition at 10 µM
Chain of Vasopressin V1a receptor (P37288 whole entry): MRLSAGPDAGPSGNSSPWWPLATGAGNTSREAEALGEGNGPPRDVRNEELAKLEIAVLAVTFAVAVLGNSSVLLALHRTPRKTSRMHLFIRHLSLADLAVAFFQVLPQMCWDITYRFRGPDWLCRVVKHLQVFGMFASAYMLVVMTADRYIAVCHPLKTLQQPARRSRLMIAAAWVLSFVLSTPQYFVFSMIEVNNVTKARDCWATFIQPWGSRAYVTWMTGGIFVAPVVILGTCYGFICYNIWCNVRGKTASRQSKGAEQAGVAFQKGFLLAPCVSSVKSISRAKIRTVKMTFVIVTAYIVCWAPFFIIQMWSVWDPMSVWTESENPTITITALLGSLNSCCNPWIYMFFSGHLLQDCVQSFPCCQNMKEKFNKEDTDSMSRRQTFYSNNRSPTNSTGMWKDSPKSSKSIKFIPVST

[4] = DRUGMATRIX: Phorbol Ester radioligand binding (ligand: [3H] PDBu); assay type: cell membranes, Mus musculus, ICR, Brain, Membrane; conditions: Not Active = under 50% inhibition at 10 µM
[5] = biological target: T1, Cytochrome P450 1A2 (Homo sapiens, UniProt P05177); conditions: bti-tn-5b1-4; also: in other assays of this panel Not Active means under 50% inhibition at 10 µM
T1 sequence (P05177 whole entry): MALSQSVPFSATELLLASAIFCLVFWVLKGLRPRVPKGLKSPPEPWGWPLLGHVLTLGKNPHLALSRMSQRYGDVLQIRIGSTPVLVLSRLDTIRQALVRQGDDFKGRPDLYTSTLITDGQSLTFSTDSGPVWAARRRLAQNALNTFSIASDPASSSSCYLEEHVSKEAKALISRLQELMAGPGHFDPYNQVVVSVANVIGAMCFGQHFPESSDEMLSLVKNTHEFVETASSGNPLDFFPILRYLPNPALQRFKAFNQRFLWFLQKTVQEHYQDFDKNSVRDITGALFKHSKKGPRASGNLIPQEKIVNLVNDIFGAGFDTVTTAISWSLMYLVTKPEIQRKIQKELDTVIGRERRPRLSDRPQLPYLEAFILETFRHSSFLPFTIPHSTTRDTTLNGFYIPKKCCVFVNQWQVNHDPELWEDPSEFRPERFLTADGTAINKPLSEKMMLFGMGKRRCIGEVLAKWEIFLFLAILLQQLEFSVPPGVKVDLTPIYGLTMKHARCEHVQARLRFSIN

[6] = biological target: T2, Adenosine receptor A1 (Homo sapiens, UniProt P30542); assay type: cell membranes, CHO, Membrane; conditions: cho;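 also: radioligand binding assay at the adenosine A1 receptor, with DPCPX serving as the labelled ligand; in other assays of this panel Not Active means under 50% inhibition at 10 µM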
T2 sequence (P30542 whole entry): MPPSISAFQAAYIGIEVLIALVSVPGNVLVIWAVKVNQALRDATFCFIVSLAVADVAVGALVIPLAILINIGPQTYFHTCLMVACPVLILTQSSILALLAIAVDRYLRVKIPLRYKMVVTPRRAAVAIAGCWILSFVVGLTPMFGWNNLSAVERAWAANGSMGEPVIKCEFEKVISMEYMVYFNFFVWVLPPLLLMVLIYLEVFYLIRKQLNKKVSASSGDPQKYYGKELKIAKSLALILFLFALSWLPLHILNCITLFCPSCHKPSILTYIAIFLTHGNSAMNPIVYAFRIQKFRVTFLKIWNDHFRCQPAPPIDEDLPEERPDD

[7] = biological target: Acetylcholinesterase (Homo sapiens, UniProt P22303); assay: DRUGMATRIX: Acetylcholinesterase enzyme inhibition (substrate: acetylthiocholine); assay type: cell-based, HEK293; conditions: hek293; Not Active = under 50% inhibition at 10 µM
Chain of Acetylcholinesterase (P22303 whole entry): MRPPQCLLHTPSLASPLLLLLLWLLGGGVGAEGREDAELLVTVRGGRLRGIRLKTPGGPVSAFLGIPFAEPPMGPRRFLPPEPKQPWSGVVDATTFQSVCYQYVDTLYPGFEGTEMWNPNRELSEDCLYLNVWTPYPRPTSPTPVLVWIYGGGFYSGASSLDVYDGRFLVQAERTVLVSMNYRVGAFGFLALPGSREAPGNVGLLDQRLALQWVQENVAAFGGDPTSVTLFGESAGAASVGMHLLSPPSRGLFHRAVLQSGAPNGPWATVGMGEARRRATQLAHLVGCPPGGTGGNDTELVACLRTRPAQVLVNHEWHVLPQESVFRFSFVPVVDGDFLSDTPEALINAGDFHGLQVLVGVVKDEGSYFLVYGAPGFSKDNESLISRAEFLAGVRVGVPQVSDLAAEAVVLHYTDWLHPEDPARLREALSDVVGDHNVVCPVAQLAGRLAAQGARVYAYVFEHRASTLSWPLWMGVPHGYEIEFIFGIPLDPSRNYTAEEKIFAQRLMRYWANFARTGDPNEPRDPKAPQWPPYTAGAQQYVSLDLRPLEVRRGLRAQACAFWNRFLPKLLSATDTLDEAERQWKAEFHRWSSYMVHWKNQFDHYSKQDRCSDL

[8] = biological target: T3, Estrogen receptor (Homo sapiens, UniProt P03372); conditions: sf9; also: in other assays of this panel Not Active means under 50% inhibition at 10 µM
T3 sequence (P03372 whole entry): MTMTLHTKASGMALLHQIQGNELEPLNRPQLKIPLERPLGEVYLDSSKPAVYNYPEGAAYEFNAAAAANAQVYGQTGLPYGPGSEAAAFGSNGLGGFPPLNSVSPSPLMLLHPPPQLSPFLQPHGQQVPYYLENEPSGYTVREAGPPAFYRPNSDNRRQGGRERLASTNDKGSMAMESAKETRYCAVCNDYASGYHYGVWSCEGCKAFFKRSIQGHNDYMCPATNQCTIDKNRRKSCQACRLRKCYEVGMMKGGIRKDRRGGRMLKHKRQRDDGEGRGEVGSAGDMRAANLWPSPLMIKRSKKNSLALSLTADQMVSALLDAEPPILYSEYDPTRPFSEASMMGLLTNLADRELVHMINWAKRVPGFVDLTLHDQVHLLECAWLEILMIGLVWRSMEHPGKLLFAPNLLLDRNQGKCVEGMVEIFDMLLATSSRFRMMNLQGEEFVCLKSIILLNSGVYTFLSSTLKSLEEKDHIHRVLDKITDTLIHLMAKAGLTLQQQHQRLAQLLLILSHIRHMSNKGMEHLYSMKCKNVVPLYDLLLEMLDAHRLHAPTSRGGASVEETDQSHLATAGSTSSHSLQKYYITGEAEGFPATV

[9] = DRUGMATRIX: Nicotinic Acetylcholine radioligand binding (ligand: [125I] Epibatidine); assay type: cell membranes, Membrane; conditions: imr-32; Not Active = under 50% inhibition at 10 µM

Cc1c2oc3c(C)ccc(C(=O)N[C@@H]4C(=O)N[C@H](C(C)C)C(=O)N5CCC[C@H]5C(=O)N(C)CC(=O)N(C)[C@@H](C(C)C)C(=O)O[C@@H]4C)c3nc-2c(C(=O)N[C@@H]2C(=O)N[C@H](C(C)C)C(=O)N3CCC[C@H]3C(=O)N(C)CC(=O)N(C)[C@@H](C(C)C)C(=O)O[C@@H]2C)c(N)c1=O [DACTINOMYCIN] (I: T[dV]P[Sar][NMeV] / II: T[dV]P[Sar][NMeV]; ester I:1-I:C, II:1-II:C; linker I:N-II:N via Actinocin(1to9))
Not Active: IC50 [1] | Ki [1] | IC50 [2] | Ki [2] | IC50 [3] | IC50 [4] | Ki [4] | IC50 [5] | Ki [5] | IC50 [6] | IC50 [7] | IC50 [8] | IC50 [9] | Ki [9]

Cc1c(O)c(=O)ccn1C [DEFERIPRONE]
Not Active: IC50 [1] | Ki [1] | IC50 [2] | Ki [2] | IC50 [3] | IC50 [4] | Ki [4] | IC50 [5] | Ki [5] | IC50 [6] | IC50 [7] | IC50 [8] | IC50 [9] | Ki [9]

CNCCCN1c2ccccc2CCc2ccccc21 [DESIPRAMINE]
Not Active: IC50 [1] | Ki [1] | IC50 [2] | Ki [2] | IC50 [3] | IC50 [4] | Ki [4] | IC50 [5] | Ki [5] | IC50 [6] | IC50 [7] | IC50 [8] | IC50 [9] | Ki [9]

CC(C)[C@@]1(NC(=O)[C@@H]2C[C@@H]3c4cccc5[nH]cc(c45)C[C@H]3N(C)C2)O[C@@]2(O)[C@@H]3CCCN3C(=O)[C@H](Cc3ccccc3)N2C1=O.CS(=O)(=O)O [DIHYDROERGOCRISTINE MESYLATE]
Not Active: IC50 [1] | Ki [1] | IC50 [2] | Ki [2] | IC50 [3] | IC50 [4] | Ki [4] | IC50 [5] | Ki [5] | IC50 [6] | IC50 [7] | IC50 [8] | IC50 [9] | Ki [9]

O=C(CCCN1CC=C(n2c(=O)[nH]c3ccccc32)CC1)c1ccc(F)cc1 [DROPERIDOL]
Not Active: IC50 [1] | Ki [1] | IC50 [2] | Ki [2] | IC50 [3] | IC50 [4] | Ki [4] | IC50 [5] | Ki [5] | IC50 [6] | IC50 [7] | IC50 [8] | IC50 [9] | Ki [9]

CC(C)[C@H]1C(=O)N2CCC[C@H]2[C@]2(O)O[C@](NC(=O)[C@@H]3C=C4c5cccc6[nH]cc(c56)C[C@H]4N(C)C3)(C(C)C)C(=O)N12 [ERGOCORNINE]
Not Active: IC50 [1] | Ki [1] | IC50 [2] | Ki [2] | IC50 [3] | IC50 [4] | Ki [4] | IC50 [5] | Ki [5] | IC50 [6] | IC50 [7] | IC50 [8] | IC50 [9] | Ki [9]

OC(Cn1cncn1)(Cn1cncn1)c1ccc(F)cc1F [FLUCONAZOLE]
Not Active: IC50 [1] | Ki [1] | IC50 [2] | Ki [2] | IC50 [3] | IC50 [4] | Ki [4] | IC50 [5] | Ki [5] | IC50 [6] | IC50 [7] | IC50 [8] | IC50 [9] | Ki [9]

CC(C)C(=O)Nc1ccc([N+](=O)[O-])c(C(F)(F)F)c1 [FLUTAMIDE]
Not Active: IC50 [1] | Ki [1] | IC50 [2] | Ki [2] | IC50 [3] | IC50 [4] | Ki [4] | IC50 [5] | Ki [5] | IC50 [6] | IC50 [7] | IC50 [8] | IC50 [9] | Ki [9]

CC1(C)O[C@@H]2C[C@H]3[C@@H]4CCC5=CC(=O)CC[C@]5(C)[C@@]4(F)[C@@H](O)C[C@]3(C)[C@]2(C(=O)CCl)O1 [HALCINONIDE]
Not Active: IC50 [1] | Ki [1] | IC50 [2] | Ki [2] | IC50 [3] | IC50 [4] | Ki [4] | IC50 [5] | Ki [5] | IC50 [6] | IC50 [7] | IC50 [8] | IC50 [9] | Ki [9]

CC1Cc2ccccc2N1NC(=O)c1ccc(Cl)c(S(N)(=O)=O)c1 (stereo not given) [INDAPAMIDE]
Not Active: IC50 [1] | Ki [1] | IC50 [2] | Ki [2] | IC50 [3] | IC50 [4] | Ki [4] | IC50 [5] | Ki [5] | IC50 [6] | IC50 [7] | IC50 [8] | IC50 [9] | Ki [9]

CCC(C)n1ncn(-c2ccc(N3CCN(c4ccc(OCC5COC(Cn6cncn6)(c6ccc(Cl)cc6Cl)O5)cc4)CC3)cc2)c1=O (stereo not given) [ITRACONAZOLE]
Not Active: IC50 [1] | Ki [1] | IC50 [2] | Ki [2] | IC50 [3] | IC50 [4] | Ki [4] | IC50 [5] | Ki [5] | IC50 [6] | IC50 [7] | IC50 [8] | IC50 [9] | Ki [9]

CCCCN1CCCC[C@H]1C(=O)Nc1c(C)cccc1C [LEVOBUPIVACAINE]
Not Active: IC50 [1] | Ki [1] | IC50 [2] | Ki [2] | IC50 [3] | IC50 [4] | Ki [4] | IC50 [5] | Ki [5] | IC50 [6] | IC50 [7] | IC50 [8] | IC50 [9] | Ki [9]

Sc1ncnc2nc[nH]c12 [MERCAPTOPURINE ANHYDROUS]
Not Active: IC50 [1] | Ki [1] | IC50 [2] | Ki [2] | IC50 [3] | IC50 [4] | Ki [4] | IC50 [5] | Ki [5] | IC50 [6] | IC50 [7] | IC50 [8] | IC50 [9] | Ki [9]

C[C@]12CCC(=O)C=C1CC[C@@H]1[C@@H]2CC[C@@]2(C)[C@H]1CC[C@]2(C)O [METHYLTESTOSTERONE]
Not Active: IC50 [1] | Ki [1] | IC50 [2] | Ki [2] | IC50 [3] | IC50 [4] | Ki [4] | IC50 [5] | Ki [5] | IC50 [6] | IC50 [7] | IC50 [8] | IC50 [9] | Ki [9]

CCn1cc(C(=O)O)c(=O)c2cc(F)c(N3CCNCC3)cc21 [NORFLOXACIN]
Not Active: IC50 [1] | Ki [1] | IC50 [2] | Ki [2] | IC50 [3] | IC50 [4] | Ki [4] | IC50 [5] | Ki [5] | IC50 [6] | IC50 [7] | IC50 [8] | IC50 [9] | Ki [9]
